B1: FimX^ΔEAL (residues 1-431: N-terminal response receiver, PAS and GGDEF domains) (domain or fragment)
chain: MAIEKKTIRLLILEDSQNEAERLVSLFRNAGHATRVHRLTSPEDLAETLQQSWDLLIAAPTSECLEPGEALATLRRQSRDIPFIQLVADNSSDAITDALMLGAQDALPQGEDERLVLVANRELAGLAERRARRAAELALREAEKRCQLLLDSSVDAITYVHDGMHIYANRSYMALFGYEDAEELEGLPVIDLIASCDQGAFKDFLKGYQNDQRQTELVCTGVKLDGQEFKARISLSAATYDGEPCIQVVIRGEVDNAELEEKLREVSSQDPVTGLYNRSHFLDLMDAAVQQAVTARKPSTLAYIHLNGYPSLQADHGLSGIDLLLGQLAGLMREQFGEEADLARFGDSIFAALFKGKTPEQAQAALQRLLKKVENHLFELNGRSAQATLSIGVAGLDEKTAKAQDVMNRAHRCADDAARKGGSQIKQYNPA

Assays:
[1] = biological target: FimX^full-length (Pseudomonas aeruginosa, UniProt Q9HUK6); test: isothermal titration calorimetry; format: binding
[2] = biological target: FimX^EAL (Pseudomonas aeruginosa, UniProt Q9HUK6); test: isothermal titration calorimetry; format: binding
[3] = biological target: the molecule itself; test: AUC

Row | Molecule | Kd [1] [nM] | Kd [2] [nM] | stoichiometry N [3]
1 | Nc1nc2c(ncn2[C@@H]2O[C@@H]3CO[P@](=O)(O)O[C@H]4[C@@H](O)[C@H](n5cnc6c(=O)[nH]c(N)nc65)O[C@@H]4CO[P@](=O)(O)O[C@H]3[C@H]2O)c(=O)[nH]1 [c-di-GMP] | 125 | 104 | –
2 | B1 | – | – | 2

From publication PMC2747306 (Structure (London, England : 1993), 2009)
